This passage reports IC50 results from patent US10239840B2, “Benzoazepine derivatives” (ViiV HEALTHCARE UK LIMITED, priority 2015, dated 2019).

The experiment has as its system HIV. Kind of experiment: MT4 assay, antiviral HIV activity. It is filed as cell-based. As to conditions: MT-4 cells (HTLV-1 transformed), read-out at 96 hours with cell titer glo. The method, then:
Antiviral HIV activity and cytotoxicity values for compounds of the invention from Table 1 were measured in parallel in the HTLV-1 transformed cell line MT-4 based on the method previously described (Hazen et al., 2007, In vitro antiviral activity of the novel, tyrosyl-based human immunodeficiency virus (HIV) type 1 protease inhibitor brecanavir (GW640385) in combination with other antiretrovirals and against a panel of protease inhibitor-resistant HIV (Hazen et al., “In vitro antiviral activity of the novel, tyrosyl-based human immunodeficiency virus (HIV) type 1 protease inhibitor brecanavir (GW640385) in combination with other antiretrovirals and against a panel of protease inhibitor-resistant HIV”, Antimicrob. Agents Chemother. 2007, 51: 3147-3154; and Pauwels et al., “Sensitive and rapid assay on MT-4 cells for the detection of antiviral compounds against the AIDS virus”, J. of Virological Methods 1987, 16: 171-185).
Luciferase activity was measured 96 hours later by adding a cell titer glo (Promega, Madison, Wis.). Percent inhibition of cell protection data was plotted relative to no compound control. Under the same condition, cytotoxicity of the compounds was determined using cell titer Glo™ (Promega, Madison, Wis.). IC50s were determined from a 10 point dose response curve using 3-4-fold serial dilution for each compound, which spans a concentration range >1000 fold.
These values are plotted against the molar compound concentrations using the standard four parameter logistic equation: y=((Vmax*x^n)/(K^n+x^n)+Y2
Y2=minimum γ n=slope factor
Vmax=maximum γ x=compound concentration [M]
For orientation: ATP-based viability assays read luminescence as a measure of living cells.
For `Cc1c(-c2c(C)c3c(c(C)c2[C@H](OC(C)(C)C)C(=O)O)CCN(C(=O)c2cccc(F)c2)CC3)cc(Cl)c2c1CCCO2` (atropisomer, axis not shown; (M)) [Example 1, (S)-2-(tert-butoxy)-2-((M)-8-(8-chloro-5-methylchroman-6-yl)-3-(3-fluorobenzoyl)-6,9-dimethyl-2,3,4,5-tetrahydro-1H-benzo[d]azepin-7-yl)acetic Acid], the IC50 is 27 nM.

In the case of `Cc1c(-c2c(C)c3c(c(C)c2[C@H](OC(C)(C)C)C(=O)O)CCN(C(=O)c2cccc(F)c2)CC3)cc(F)c2c1CCCO2` (atropisomer, axis not shown; (M)) [Example 5, (2S)-2-(tert-butoxy)-2-((M)-8-(8-fluoro-5-methylchroman-6-yl)-3-(3-fluorobenzoyl)-6,9-dimethyl-2,3,4,5-tetrahydro-1H-benzo[d]azepin-7-yl)acetic Acid], the IC50 worked out at 5 nM.

As for `Cc1c(-c2c(C)c3c(c(C)c2[C@H](OC(C)(C)C)C(=O)O)CCN(C(=O)CC(C)(C)C)CC3)cc(F)c2c1CCCO2` (atropisomer, axis not shown; (M)) [Example 6, (S)-2-(tert-butoxy)-2-((M)-3-(3,3-dimethylbutanoyl)-8-(8-fluoro-5-methylchroman-6-yl)-6,9-dimethyl-2,3,4,5-tetrahydro-1H-benzo[d]azepin-7-yl)acetic Acid], the IC50 turned out to be 60 nM.

As to `COc1ccc(F)cc1C(=O)N1CCc2c(C)c(-c3cc(F)c4c(c3C)CCCO4)c([C@H](OC(C)(C)C)C(=O)O)c(C)c2CC1` (atropisomer, axis not shown; (M)) [Example 7, (S)-2-(tert-butoxy)-2-((M)-3-(5-fluoro-2-methoxybenzoyl)-8-(8-fluoro-5-methylchroman-6-yl)-6,9-dimethyl-2,3,4,5-tetrahydro-1H-benzo[d]azepin-7-yl)acetic Acid], the IC50 was found to be 5 nM.

Turning to `COc1ccc(C)cc1C(=O)N1CCc2c(C)c(-c3cc(F)c4c(c3C)CCCO4)c([C@H](OC(C)(C)C)C(=O)O)c(C)c2CC1` (atropisomer, axis not shown; (M)) [Example 8, (S)-2-(tert-butoxy)-2-((M)-8-(8-fluoro-5-methylchroman-6-yl)-3-(2-methoxy-5-methylbenzoyl)-6,9-dimethyl-2,3,4,5-tetrahydro-1H-benzo[d]azepin-7-yl)acetic Acid], the IC50 came to 4 nM.

Regarding `COc1ccc(C(=O)N2CCc3c(C)c(-c4cc(F)c5c(c4C)CCCO5)c([C@H](OC(C)(C)C)C(=O)O)c(C)c3CC2)cc1C` (atropisomer, axis not shown; (M)) [Example 9, (S)-2-(tert-butoxy)-2-((M)-8-(8-fluoro-5-methylchroman-6-yl)-3-(4-methoxy-3-methylbenzoyl)-6,9-dimethyl-2,3,4,5-tetrahydro-1H-benzo[d]azepin-7-yl)acetic Acid], the IC50 came to 14 nM.

On to `COc1c(F)cccc1C(=O)N1CCc2c(C)c(-c3cc(F)c4c(c3C)CCCO4)c([C@H](OC(C)(C)C)C(=O)O)c(C)c2CC1` (atropisomer, axis not shown; (M)) [Example 10, (S)-2-(tert-butoxy)-2-((M)-3-(3-fluoro-2-methoxybenzoyl)-8-(8-fluoro-5-methylchroman-6-yl)-6,9-dimethyl-2,3,4,5-tetrahydro-1H-benzo[d]azepin-7-yl)acetic Acid], for which the IC50 stood at 5 nM.

Regarding `Cc1c(-c2c(C)c3c(c(C)c2[C@H](OC(C)(C)C)C(=O)O)CCN(C(=O)c2cccc4c2OCC4)CC3)cc(F)c2c1CCCO2` (atropisomer, axis not shown; (M)) [Example 11, (S)-2-(tert-butoxy)-2-((M)-3-(2,3-dihydrobenzofuran-7-carbonyl)-8-(8-fluoro-5-methylchroman-6-yl)-6,9-dimethyl-2,3,4,5-tetrahydro-1H-benzo[d]azepin-7-yl)acetic Acid], the IC50 amounted to 9 nM.

For the compound `Cc1c(-c2c(C)c3c(c(C)c2[C@H](OC(C)(C)C)C(=O)O)CCN(C(=O)C2CCCCC2)CC3)cc(F)c2c1CCCO2` (atropisomer, axis not shown; (M)) [Example 12, (S)-2-(tert-butoxy)-2-((M)-3-(cyclohexanecarbonyl)-8-(8-fluoro-5-methylchroman-6-yl)-6,9-dimethyl-2,3,4,5-tetrahydro-1H-benzo[d]azepin-7-yl)acetic Acid], the IC50 came to 19 nM.

Consider `COc1cc(C(=O)N2CCc3c(C)c(-c4cc(F)c5c(c4C)CCCO5)c([C@H](OC(C)(C)C)C(=O)O)c(C)c3CC2)ccc1F` (atropisomer, axis not shown; (M)) [Example 13, (S)-2-(tert-butoxy)-2-((M)-3-(4-fluoro-3-methoxybenzoyl)-8-(8-fluoro-5-methylchroman-6-yl)-6,9-dimethyl-2,3,4,5-tetrahydro-1H-benzo[d]azepin-7-yl)acetic Acid], for which the IC50 is 4 nM.

For the compound `Cc1c(-c2c(C)c3c(c(C)c2[C@H](OC(C)(C)C)C(=O)O)CCN(C(=O)C(=O)N2CCCCC2)CC3)cc(F)c2c1CCCO2` (atropisomer, axis not shown; (M)) [Example 14, (S)-2-(tert-butoxy)-2-((M)-8-(8-fluoro-5-methylchroman-6-yl)-6,9-dimethyl-3-(2-oxo-2-(piperidin-1-yl)acetyl)-2,3,4,5-tetrahydro-1H-benzo[d]azepin-7-yl)acetic Acid], the IC50 came out at 17 nM.

Turning to `Cc1c(-c2c(C)c3c(c(C)c2[C@H](OC(C)(C)C)C(=O)O)CCN(Cc2cccc(F)c2)CC3)cc(F)c2c1CCCO2` (atropisomer, axis not shown; (M)) [Example 15, (S)-2-(tert-butoxy)-2-((M)-8-(8-fluoro-5-methylchroman-6-yl)-3-(3-fluorobenzyl)-6,9-dimethyl-2,3,4,5-tetrahydro-1H-benzo[d]azepin-7-yl)acetic Acid], the IC50 came out at 77 nM.

For the compound `Cc1c(-c2c(C)c3c(c(C)c2[C@H](OC(C)(C)C)C(=O)O)CCN(CCC2CCCCC2)CC3)cc(F)c2c1CCCO2` (atropisomer, axis not shown; (M)) [Example 16, (2S)-2-(tert-butoxy)-2-((M)-3-(2-cyclohexylethyl)-8-(8-fluoro-5-methylchroman-6-yl)-6,9-dimethyl-2,3,4,5-tetrahydro-1H-benzo[d]azepin-7-yl)acetic Acid], the IC50 came to 13 nM.

For the compound `Cc1c(-c2c(C)c3c(c(C)c2[C@H](OC(C)(C)C)C(=O)O)CCN(CC2CCCCC2)CC3)cc(F)c2c1CCCO2` (atropisomer, axis not shown; (M)) [Example 17, (S)-2-(tert-butoxy)-2-((M)-3-(cyclohexylmethyl)-8-(8-fluoro-5-methylchroman-6-yl)-6,9-dimethyl-2,3,4,5-tetrahydro-1H-benzo[d]azepin-7-yl)acetic Acid], the IC50 amounted to 10 nM.

`Cc1c(-c2c(C)c3c(c(C)c2[C@H](OC(C)(C)C)C(=O)O)CCN(C2CCCCC2)CC3)cc(F)c2c1CCCO2` (atropisomer, axis not shown; (M)) [Example 18, (2S)-2-(tert-butoxy)-2-((M)-3-cyclohexyl-8-(8-fluoro-5-methylchroman-6-yl)-6,9-dimethyl-2,3,4,5-tetrahydro-1H-benzo[d]azepin-7-yl)acetic Acid]: the IC50 turned out to be 13 nM.

`Cc1c(-c2c(C)c3c(c(C)c2[C@H](OC(C)(C)C)C(=O)O)CCN(c2ccccc2)CC3)cc(F)c2c1CCCO2` (atropisomer, axis not shown; (M)) [Example 19, (2S)-2-(tert-butoxy)-2-((M)-8-(8-fluoro-5-methylchroman-6-yl)-6,9-dimethyl-3-phenyl-2,3,4,5-tetrahydro-1H-benzo[d]azepin-7-yl)acetic Acid]: the IC50 is 92 nM.

In the case of `Cc1c(-c2c(C)c3c(c(C)c2[C@H](OC(C)(C)C)C(=O)O)CCN(S(=O)(=O)C2CCCCC2)CC3)cc(F)c2c1CCCO2` (atropisomer, axis not shown; (M)) [Example 20, (2S)-2-(tert-butoxy)-2-((M)-3-(cyclohexylsulfonyl)-8-(8-fluoro-5-methylchroman-6-yl)-6,9-dimethyl-2,3,4,5-tetrahydro-1H-benzo[d]azepin-7-yl)acetic Acid], the IC50 was determined as 42 nM.

Turning to `Cc1c(-c2c(C)c3c(c(C)c2[C@H](OC(C)(C)C)C(=O)O)CCN(S(=O)(=O)N2CCCCC2)CC3)cc(F)c2c1CCCO2` (atropisomer, axis not shown; (M)) [Example 21, (2S)-2-(tert-butoxy)-2-((M)-8-(8-fluoro-5-methylchroman-6-yl)-6,9-dimethyl-3-(piperidin-1-ylsulfonyl)-2,3,4,5-tetrahydro-1H-benzo[d]azepin-7-yl)acetic Acid], the IC50 was 8 nM.

For the compound `Cc1c(-c2c(C)c3c(c(C)c2[C@H](OC(C)(C)C)C(=O)O)CCN(C(=O)N2CCCCC2)CC3)cc(F)c2c1CCCO2` (atropisomer, axis not shown; (M)) [Example 22, (2S)-2-(tert-butoxy)-2-((M)-8-(8-fluoro-5-methylchroman-6-yl)-6,9-dimethyl-3-(piperidine-1-carbonyl)-2,3,4,5-tetrahydro-1H-benzo[d]azepin-7-yl)acetic Acid], the IC50 was 9 nM.

Consider `COc1ccc(-c2c(C)c3c(c(C)c2[C@H](OC(C)(C)C)C(=O)O)CCN(C(=O)c2cccc(F)c2)CC3)cc1` [Example 2, (S)-2-(tert-butoxy)-2-(3-(3-fluorobenzoyl)-8-(4-methoxyphenyl)-6,9-dimethyl-2,3,4,5-tetrahydro-1H-benzo[d]azepin-7-yl)acetic Acid], for which the IC50 is 76 nM.

Usually IC50 stands for the concentration at which inhibition is half-maximal.
